From PubChem BioAssay AID1918932 (Molecular Pharmacology Branch, DTP, NCI, 2023)

Test system: 171881-019-R-J1-PDC complex spheroid viability
Experiment: Anticancer human tumor 171881-019-R-J1-PDC patient-derived invasive breast carcinoma cell line growth inhibition
Conditions: for IC50: curve of first compound; for viability, T/C: stronger effect = lower value; active = viability on the fitted dose curve at most 10% of control; inactive = the rest
Text: Multicellular complex tumor spheroid response to LSD1 Inhibitor Iadademstat in combination with a variety of drugs and investigational agents in selected tumor cell lines
The current study was undertaken to assess response to LSD1 inhibitors in combination with standard-of-care drugs and investigational agents in solid tumor complex spheroid models as well as in the K-562 leukemia. Complex spheroids include a stromal component modeled by human endothelial cells (HUVEC) and fibroblasts modeled by human mesenchymal stem cells (MSCs). The concentration ranges selected for each drug and investigational agent were based upon clinically achievable concentrations if the clinical Cmax of the agent was known.
Compounds. The drugs and investigational agents used in this study are listed on Table 1. All of the agents used, including staurosporine (NSC755774) and gemcitabine (NSC613327), were obtained from the Developmental Therapeutics Program, NCI. FDA-approved anticancer drugs are available from the NCI at http://dtp.nci.nih.gov/branches/dscb/oncology_drugset_explanation.html. Drugs and investigational agents were >95% pure by proton nuclear magnetic resonance (NMR) and liquid chromatography/mass spectrometry (LC/MS). Stock solutions were prepared at 400x in DMSO, stored at -70 degrees C, and diluted in fresh medium prior to their use. The final concentration of DMSO in cell culture wells never exceeded 0.25% (v/v). The FDA-approved anticancer drug set is available from the Developmental Therapeutics Program at https://dtp.cancer.gov/organization/dscb/obtaining/available_plates.htm. All drugs and investigational agents were tested over a range starting from a high concentration at or near the clinical Cmax and decreasing in half-log increments. If the clinical Cmax for an agent had not been determined, the highest concentration tested was 10 microM.
Cell Lines. The patient-derived cancer cell (PDC) lines: 292921-168-R-J2-PDC, K24384-001-R-PDC, and 521955-158-R2-J5-PDC pancreatic carcinomas, 556581-035-R-J1 ovarian carcinoma, 324938-238-R-J1-PDC, 855422-203-R-J1-PDC and 883617-216-R-J1-PDC urothelial bladder carcinomas, 743489-274-T-PDC renal cell carcinoma, 138582-R-J1 Merkel cell tumor, K60290-347-R-J1 and K57222-313-R-J1-PDC glioblastomas, 653999-131-R-J2-PDC, LG0703-F948-PDC, and 349418-098-R-PDC non-small cell lung carcinomas, 885512-296-R-J2-PDC, 171881-019-R-J1-PDC breast carcinomas and 186277-243-T-J2-PDC and 233499-124-R-J2-PDC colon carcinomas were obtained from the NCI Patient-Derived Models Repository (PDMR, https://pdmr.cancer.gov). The established cell lines NCI/ADR-RES (RRID:CVCL_14520 and OVCAR-5 (RRID:CVCL_1628) ovarian carcinomas, 786-O (RRID:CVCL_1051) and A498 (RRID:CVCL_A498) renal cell carcinoma, NCI-H211 (ATCC, cat. CRL-5824; RRID:CVCL_1529), NCI-H196 (ATCC, cat. CRL-5823, RRID:CVCL_1509), SW 1271 (ATCC, cat. CRL-2177, RRID:CVCL_1716) and NCI-H1876 (ATCC, cat. CRL-5902, RRID:CVCL_1503) small cell lung carcinomas, MDA-MB-231 (RRID:CVCL_0062) and MDA-MB-468 (RRID:CVCL_0419)breast carcinomas (10-12). Pooled donor human umbilical vein endothelial cells (HUVEC, Lonza, cat. CC-2519) and human mesenchymal stem cells (hMSC, Lonza, cat. PT-2501) were purchased from Lonza (Walkersville, MD).
Cell Culture. All cells were maintained in an incubator at 37 degrees C and 5% CO2 with 95% humidity. The PDC lines were cultured according to standard operating procedures established by the NCI PDMR (https://pdmr.cancer.gov). Briefly all PDCs were thawed and cultured in Matrigel-coated flasks prepared with a working solution of 1X Ham's F-12 nutrient mix, without supplementation (Invitrogen, Waltham, MA, cat. 11765054), 100 U/mL penicillin-streptomycin (Invitrogen, cat. 15140122), and 2.5% Matrigel (Corning Inc., Corning, NY, cat. 354248) for the first three passages. […]
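Also: spheroids exposed to agents for 7 days after 3 days growth.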

Nc1ncn(C2CC(O)C(CO)O2)c(=O)n1 (stereo not given) + NC1CC1c1ccc(-c2cccc(O)c2)cc1
> 1000 nM: IC50 (second compound 0.1 µM) | IC50 (second compound 0.316 µM) | IC50 (second compound 1 µM) | IC50 (second compound 3.16 µM) | IC50 (second compound 10 µM)
inactive: viability, T/C (second compound 0.1 µM, first compound 0.00316 µM) 102% | viability, T/C (second compound 0.1 µM, first compound 0.01 µM) 98.4% | viability, T/C (second compound 0.1 µM, first compound 0.0316 µM) 97.7% | viability, T/C (second compound 0.1 µM, first compound 0.1 µM) 88.4% | viability, T/C (second compound 0.1 µM, first compound 0.316 µM) 93.8% | viability, T/C (second compound 0.1 µM, first compound 1 µM) 85.1% | viability, T/C (second compound 0.316 µM, first compound 0.00316 µM) 102% | viability, T/C (second compound 0.316 µM, first compound 0.01 µM) 98.6% | viability, T/C (second compound 0.316 µM, first compound 0.0316 µM) 95.1% | viability, T/C (second compound 0.316 µM, first compound 0.1 µM) 96.2% | viability, T/C (second compound 0.316 µM, first compound 0.316 µM) 90.8% | viability, T/C (second compound 0.316 µM, first compound 1 µM) 90.4% | viability, T/C (second compound 1 µM, first compound 0.00316 µM) 106% | viability, T/C (second compound 1 µM, first compound 0.01 µM) 102% | viability, T/C (second compound 1 µM, first compound 0.0316 µM) 95% | viability, T/C (second compound 1 µM, first compound 0.1 µM) 96.3% | viability, T/C (second compound 1 µM, first compound 0.316 µM) 92.6% | viability, T/C (second compound 1 µM, first compound 1 µM) 85.1% | viability, T/C (second compound 3.16 µM, first compound 0.00316 µM) 102% | viability, T/C (second compound 3.16 µM, first compound 0.01 µM) 96% | viability, T/C (second compound 3.16 µM, first compound 0.0316 µM) 95.8% | viability, T/C (second compound 3.16 µM, first compound 0.1 µM) 96% | viability, T/C (second compound 3.16 µM, first compound 0.316 µM) 87% | viability, T/C (second compound 3.16 µM, first compound 1 µM) 82.1% | viability, T/C (second compound 10 µM, first compound 0.00316 µM) 82.4% | viability, T/C (second compound 10 µM, first compound 0.01 µM) 80.6% | viability, T/C (second compound 10 µM, first compound 0.0316 µM) 81.4% | viability, T/C (second compound 10 µM, first compound 0.1 µM) 81% | viability, T/C (second compound 10 µM, first compound 0.316 µM) 80% | viability, T/C (second compound 10 µM, first compound 1 µM) 74.8%

Nc1ccn(C2OC(CO)C(O)C2(F)F)c(=O)n1 (stereo not given) + NC1CCC(NC2CC2c2ccccc2)CC1
> 300 nM: IC50 (second compound 0.1 µM) | IC50 (second compound 0.316 µM) | IC50 (second compound 1 µM) | IC50 (second compound 3.16 µM) | IC50 (second compound 10 µM)
inactive: viability, T/C (second compound 0.1 µM, first compound 0.000949 µM) 77.4% | viability, T/C (second compound 0.1 µM, first compound 0.003 µM) 53.8% | viability, T/C (second compound 0.1 µM, first compound 0.00949 µM) 56.2% | viability, T/C (second compound 0.1 µM, first compound 0.03 µM) 59.2% | viability, T/C (second compound 0.1 µM, first compound 0.0949 µM) 57.8% | viability, T/C (second compound 0.1 µM, first compound 0.3 µM) 55.6% | viability, T/C (second compound 0.316 µM, first compound 0.000949 µM) 77.7% | viability, T/C (second compound 0.316 µM, first compound 0.003 µM) 54.9% | viability, T/C (second compound 0.316 µM, first compound 0.00949 µM) 54.6% | viability, T/C (second compound 0.316 µM, first compound 0.03 µM) 58.6% | viability, T/C (second compound 0.316 µM, first compound 0.0949 µM) 56.4% | viability, T/C (second compound 0.316 µM, first compound 0.3 µM) 54.3% | viability, T/C (second compound 1 µM, first compound 0.000949 µM) 85.6% | viability, T/C (second compound 1 µM, first compound 0.003 µM) 56.5% | viability, T/C (second compound 1 µM, first compound 0.00949 µM) 57.8% | viability, T/C (second compound 1 µM, first compound 0.03 µM) 60.4% | viability, T/C (second compound 1 µM, first compound 0.0949 µM) 58% | viability, T/C (second compound 1 µM, first compound 0.3 µM) 54.7% | viability, T/C (second compound 3.16 µM, first compound 0.000949 µM) 84.8% | viability, T/C (second compound 3.16 µM, first compound 0.003 µM) 56% | viability, T/C (second compound 3.16 µM, first compound 0.00949 µM) 60.8% | viability, T/C (second compound 3.16 µM, first compound 0.03 µM) 63.4% | viability, T/C (second compound 3.16 µM, first compound 0.0949 µM) 60.1% | viability, T/C (second compound 3.16 µM, first compound 0.3 µM) 54.7% | viability, T/C (second compound 10 µM, first compound 0.000949 µM) 90.5% | viability, T/C (second compound 10 µM, first compound 0.003 µM) 62.5% | viability, T/C (second compound 10 µM, first compound 0.00949 µM) 64% | viability, T/C (second compound 10 µM, first compound 0.03 µM) 70% | viability, T/C (second compound 10 µM, first compound 0.0949 µM) 68.5% | viability, T/C (second compound 10 µM, first compound 0.3 µM) 64.1%
